Legend:
Ba/F3(EML4-ALK) cells = biological target: T1, Ba/F3(EML4-ALK) cells (Homo sapiens, UniProt Q9UM73); test: Assay of activity on Ba/F3(EML4-ALK) cells (CTG, 72 h); format: cell-based; conditions: read-out: IC50 (nM) Ba/F3(EML4-ALK)
T1 construct: fused on or other part: Q9HC35 (Echinoderm microtubule-associated protein-like 4)
Procedure: Assay of activity on Ba/F3(EML4-ALK) cells
(1) Ba/F3(EML4-ALK) cells were cultured according to the requirements of ATCC, incubated in an incubator at 37° C. and 5% CO2, and analyzed by index; cells with viability of >90% can be used in the assay, and cells were seeded in a 384-well plate (PerkinElmer, 6007680) with 700 cells/well, 30 μl/well.
(2) A compound stock solution was prepared, and diluted 3× to obtain a compound dilution; 30 nL of the serial dilution was added to a 384-well plate (784075, Greiner) by Echo 550, and cells were incubated in an incubator at 37° C. and 5% CO2 for 72 h.
(3) 30 μL of CTG was added to each well, and the 384-well plate was shaken on a Plate shaker (QILINBEIER, QB-9002); the 384-well plate was incubated in the dark at 37° C. and 5% CO2 for 30 min, and the chemiluminescence value was read by Envision (PerkinElmer, EnVision 2104).
The percent inhibition rate (% inhibition) was calculated by the formula below
LUMcmpd: Luminescence value of assay compound.
LUMpositive: Average LUM value of positive drug at a concentration of 10 μM.
LUM^vehicle: Average LUM value of negative control group without drug treatment.
(§1) The nonlinear regression curve (dose response-variable slope) between the value of inhibition rate (%) and the logarithm of compound concentration was fitted with graphpad prism 8.0, the effect dose curve of compound was drawn, and the IC50 value was calculated.
Y=Bottom+(Top−Bottom)/(1+10^((LogIC50−X)*HillSlope))
X-axis: logarithm of compound concentration; Y axis: inhibition rate (% inhibition).

ALK = ALK (Homo sapiens, UniProt Q9UM73); test: Assay of activity on ALK kinase; format: biochemical; conditions: kinase inhibition
Procedure: (§2) Assay of activity on ALK kinase
(§3) (1) A compound stock solution was prepared;
(§4) (2) The compound stock solution was diluted 3× to obtain a compound dilution;
(§5) (5) 5 μl of the 2× kinase working solution was added to the reaction plate, centrifuged at 1,000 rpm for 1 min, and incubated at 25° C. for 15 min;
(§6) (7) 5 μl of the TK-substrate-biotin and ATP (the mixture prepared in step (6)) was added to initiate the reaction;
(§7) (8) The mixture was centrifuged at 1,000 g for 30 s; the plate was sealed, and incubated at 25° C. for 60 min;
(§8) (11) The mixture was centrifuged at 1,000 g for 1 min, and incubated at 25° C. for 60 min;
(§9) Formula of inhibition rate (%): […]
as §1
(§10) Y=Bottom+(Top−Bottom)/(1+10^((LogIC50−X)*Hill Slope))
(§11) X-axis: logarithm of compound concentration; Y axis: inhibition rate ([…])

[1] = biological target: Ba/F3(EGFR^L858R/T790M/C797S) cells (Homo sapiens, UniProt P00533, T790M/C797S/L858R, cells depend on it); test: Assay of activity on Ba/F3 cells (CTG, 72 h); format: cell-based; conditions: read-out: IC50 (nM) Ba/F3 (EGFR^L858R/T790M/C797S)
Summary of the method: (§12)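 Ba/F3 cells dependent on each EGFR triple mutant were exposed to 3-fold compound dilutions for 72 h at 37° C, 5% CO2, with CellTiter-Glo luminescence as the read-out.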

EGFR^L858R/T790M/C797S = EGFR^L858R/T790M/C797S (Homo sapiens, UniProt P00533, C797S/L858R/T790M); test: EGFR inhibitory activity assay (TK-substrate-biotin/ATP, 665/615 ratio); format: biochemical; conditions: kinase inhibition
Procedure: EGFR Inhibitory Activity Assay
(1) A compound stock solution was prepared and diluted 3× to obtain a compound dilution; 10 nL of the compound dilution was transferred to a 384-well plate (784075, Greiner) by Echo 550;
(2) The plate was sealed, and centrifuged at 1,000 g for 1 min;
(4) 5 μl of the 2×EGFR protein working solution was added to the 384-well plate from step (2), centrifuged at 1,000 g for 30 s, and allowed to stand at room temperature (mixed thoroughly) for 10 min;
(6) 5 µL of the TK-substrate-biotin and ATP (the mixture prepared in step (5)) was added to the 384-well plate from step (4) to initiate the reaction;
(7) The mixture was centrifuged at 1,000 g for 30 s; the plate was sealed, and allowed to stand (and reacted) at room temperature for 40 min;
(8) 4×Sa-XL 665 and TK-antibody-Cryptate were prepared with detection buffer;
(9) 5 µL of the Sa-XL 665 and 5 µL of the TK-antibody-Cryptate were added successively to the 384-well plate from step (7);
(10) The mixture was centrifuged at 1,000 g for 30 s, and allowed to stand (reacted) at room temperature for 1 h;
(11) The fluorescence values were read at 615 nm and 665 nm by enzyme labeling instrument (PerkinElmer, 74785).
The ratio (665/615) of each well was calculated.
as §9
Ratiocmpd: Ratio (665/615) value of assay compound.
Ratiopositive: Average ratio (665/615) value of positive control.
Ratiovehicle: Average ratio (665/615) value of negative control.
as §1

ALK^G1202R = ALK^G1202R (Homo sapiens, UniProt Q9UM73, G1202R); test: Assay of activity on ALK kinase; format: biochemical; conditions: kinase inhibition
Procedure: as §2, §3, §4, §5, §6, §7, §8, §9, §1, §10, §11

[2] = biological target: Ba/F3(EGFR^Del19/T790M/C797S) cells (Homo sapiens, UniProt P00533, DEL746-750/T790M/C797S, cells depend on it); test: Assay of activity on Ba/F3 cells (CTG, 72 h); format: cell-based; conditions: read-out: IC50 (nM) Ba/F3 (EGFR^Del19/T790M/C797S)
Summary of the method: as §12

Sequence of Ba/F3(EGFR^L858R/T790M/C797S) cells (P00533 whole entry T790M/C797S/L858R): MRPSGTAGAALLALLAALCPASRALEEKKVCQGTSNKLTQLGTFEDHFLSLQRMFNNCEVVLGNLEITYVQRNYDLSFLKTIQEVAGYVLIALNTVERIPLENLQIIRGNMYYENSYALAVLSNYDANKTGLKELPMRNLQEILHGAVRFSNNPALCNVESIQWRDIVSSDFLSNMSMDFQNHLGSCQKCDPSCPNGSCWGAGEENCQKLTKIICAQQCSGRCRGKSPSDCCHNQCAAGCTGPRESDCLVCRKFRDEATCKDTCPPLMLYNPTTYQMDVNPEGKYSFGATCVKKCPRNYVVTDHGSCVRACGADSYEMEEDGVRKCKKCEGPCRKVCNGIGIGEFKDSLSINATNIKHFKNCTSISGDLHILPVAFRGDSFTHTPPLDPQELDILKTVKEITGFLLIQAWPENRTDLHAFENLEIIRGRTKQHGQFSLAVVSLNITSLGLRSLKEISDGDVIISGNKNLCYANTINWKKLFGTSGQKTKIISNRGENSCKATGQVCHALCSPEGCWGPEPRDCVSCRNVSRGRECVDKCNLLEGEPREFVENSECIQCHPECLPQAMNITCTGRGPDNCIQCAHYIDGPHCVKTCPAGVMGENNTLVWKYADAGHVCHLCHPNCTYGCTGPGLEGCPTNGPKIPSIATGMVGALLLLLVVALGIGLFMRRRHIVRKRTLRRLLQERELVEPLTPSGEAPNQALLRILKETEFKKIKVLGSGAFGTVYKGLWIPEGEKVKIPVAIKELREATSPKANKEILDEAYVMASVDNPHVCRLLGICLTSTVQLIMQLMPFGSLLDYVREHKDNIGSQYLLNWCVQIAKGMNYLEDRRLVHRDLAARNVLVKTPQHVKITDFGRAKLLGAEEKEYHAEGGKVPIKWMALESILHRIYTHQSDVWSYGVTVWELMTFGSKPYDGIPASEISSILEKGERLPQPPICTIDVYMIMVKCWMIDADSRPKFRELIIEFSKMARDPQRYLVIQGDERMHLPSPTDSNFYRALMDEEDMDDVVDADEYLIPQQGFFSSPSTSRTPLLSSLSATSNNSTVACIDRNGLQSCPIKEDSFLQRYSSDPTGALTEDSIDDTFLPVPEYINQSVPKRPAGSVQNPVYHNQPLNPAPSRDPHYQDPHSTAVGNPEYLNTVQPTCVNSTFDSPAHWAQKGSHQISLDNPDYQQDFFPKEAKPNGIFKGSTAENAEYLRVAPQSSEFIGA
T1 sequence (Q9UM73 whole entry, change not shown, the tested form may be a part): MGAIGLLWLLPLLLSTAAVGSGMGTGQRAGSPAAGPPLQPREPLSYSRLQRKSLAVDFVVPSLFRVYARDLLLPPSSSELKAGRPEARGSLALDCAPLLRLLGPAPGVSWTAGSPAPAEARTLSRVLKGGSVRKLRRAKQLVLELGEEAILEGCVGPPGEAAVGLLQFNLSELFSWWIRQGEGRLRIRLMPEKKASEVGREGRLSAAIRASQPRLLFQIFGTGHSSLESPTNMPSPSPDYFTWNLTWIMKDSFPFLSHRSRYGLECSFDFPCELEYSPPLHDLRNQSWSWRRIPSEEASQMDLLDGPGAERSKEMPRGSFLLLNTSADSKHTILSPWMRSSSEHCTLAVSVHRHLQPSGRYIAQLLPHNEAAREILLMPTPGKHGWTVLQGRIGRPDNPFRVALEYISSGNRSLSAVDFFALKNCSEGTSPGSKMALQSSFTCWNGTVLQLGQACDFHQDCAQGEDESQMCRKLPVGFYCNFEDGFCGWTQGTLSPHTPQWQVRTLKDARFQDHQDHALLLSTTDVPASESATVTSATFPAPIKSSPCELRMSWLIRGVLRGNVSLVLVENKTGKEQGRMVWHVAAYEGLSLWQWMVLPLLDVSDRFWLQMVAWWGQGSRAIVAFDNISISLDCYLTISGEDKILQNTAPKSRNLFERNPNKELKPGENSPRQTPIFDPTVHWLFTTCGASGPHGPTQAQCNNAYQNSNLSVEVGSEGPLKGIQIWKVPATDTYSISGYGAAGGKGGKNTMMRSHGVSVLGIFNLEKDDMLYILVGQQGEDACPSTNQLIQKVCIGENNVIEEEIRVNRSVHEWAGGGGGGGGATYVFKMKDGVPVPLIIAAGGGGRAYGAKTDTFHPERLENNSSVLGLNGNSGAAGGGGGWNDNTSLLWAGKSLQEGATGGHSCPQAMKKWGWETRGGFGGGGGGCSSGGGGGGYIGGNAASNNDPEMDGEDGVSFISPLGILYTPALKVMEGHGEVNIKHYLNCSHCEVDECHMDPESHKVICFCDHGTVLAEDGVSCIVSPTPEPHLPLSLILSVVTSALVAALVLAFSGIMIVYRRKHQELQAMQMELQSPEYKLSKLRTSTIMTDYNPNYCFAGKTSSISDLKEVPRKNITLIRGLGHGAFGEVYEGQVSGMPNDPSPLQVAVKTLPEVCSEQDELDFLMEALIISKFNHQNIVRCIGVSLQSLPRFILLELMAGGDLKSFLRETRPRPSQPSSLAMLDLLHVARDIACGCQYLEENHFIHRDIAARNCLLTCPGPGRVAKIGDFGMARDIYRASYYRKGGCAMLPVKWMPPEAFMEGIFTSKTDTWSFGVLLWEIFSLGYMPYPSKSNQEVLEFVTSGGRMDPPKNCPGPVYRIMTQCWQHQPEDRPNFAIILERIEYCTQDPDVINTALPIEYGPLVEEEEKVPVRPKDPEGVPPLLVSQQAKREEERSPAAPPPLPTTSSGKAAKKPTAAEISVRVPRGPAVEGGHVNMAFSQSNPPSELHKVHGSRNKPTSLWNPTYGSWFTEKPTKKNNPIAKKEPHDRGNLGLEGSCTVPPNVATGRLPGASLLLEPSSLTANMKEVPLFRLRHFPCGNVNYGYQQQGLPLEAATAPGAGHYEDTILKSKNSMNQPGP
Sequence of ALK^G1202R (Q9UM73 19-1620 G1202R): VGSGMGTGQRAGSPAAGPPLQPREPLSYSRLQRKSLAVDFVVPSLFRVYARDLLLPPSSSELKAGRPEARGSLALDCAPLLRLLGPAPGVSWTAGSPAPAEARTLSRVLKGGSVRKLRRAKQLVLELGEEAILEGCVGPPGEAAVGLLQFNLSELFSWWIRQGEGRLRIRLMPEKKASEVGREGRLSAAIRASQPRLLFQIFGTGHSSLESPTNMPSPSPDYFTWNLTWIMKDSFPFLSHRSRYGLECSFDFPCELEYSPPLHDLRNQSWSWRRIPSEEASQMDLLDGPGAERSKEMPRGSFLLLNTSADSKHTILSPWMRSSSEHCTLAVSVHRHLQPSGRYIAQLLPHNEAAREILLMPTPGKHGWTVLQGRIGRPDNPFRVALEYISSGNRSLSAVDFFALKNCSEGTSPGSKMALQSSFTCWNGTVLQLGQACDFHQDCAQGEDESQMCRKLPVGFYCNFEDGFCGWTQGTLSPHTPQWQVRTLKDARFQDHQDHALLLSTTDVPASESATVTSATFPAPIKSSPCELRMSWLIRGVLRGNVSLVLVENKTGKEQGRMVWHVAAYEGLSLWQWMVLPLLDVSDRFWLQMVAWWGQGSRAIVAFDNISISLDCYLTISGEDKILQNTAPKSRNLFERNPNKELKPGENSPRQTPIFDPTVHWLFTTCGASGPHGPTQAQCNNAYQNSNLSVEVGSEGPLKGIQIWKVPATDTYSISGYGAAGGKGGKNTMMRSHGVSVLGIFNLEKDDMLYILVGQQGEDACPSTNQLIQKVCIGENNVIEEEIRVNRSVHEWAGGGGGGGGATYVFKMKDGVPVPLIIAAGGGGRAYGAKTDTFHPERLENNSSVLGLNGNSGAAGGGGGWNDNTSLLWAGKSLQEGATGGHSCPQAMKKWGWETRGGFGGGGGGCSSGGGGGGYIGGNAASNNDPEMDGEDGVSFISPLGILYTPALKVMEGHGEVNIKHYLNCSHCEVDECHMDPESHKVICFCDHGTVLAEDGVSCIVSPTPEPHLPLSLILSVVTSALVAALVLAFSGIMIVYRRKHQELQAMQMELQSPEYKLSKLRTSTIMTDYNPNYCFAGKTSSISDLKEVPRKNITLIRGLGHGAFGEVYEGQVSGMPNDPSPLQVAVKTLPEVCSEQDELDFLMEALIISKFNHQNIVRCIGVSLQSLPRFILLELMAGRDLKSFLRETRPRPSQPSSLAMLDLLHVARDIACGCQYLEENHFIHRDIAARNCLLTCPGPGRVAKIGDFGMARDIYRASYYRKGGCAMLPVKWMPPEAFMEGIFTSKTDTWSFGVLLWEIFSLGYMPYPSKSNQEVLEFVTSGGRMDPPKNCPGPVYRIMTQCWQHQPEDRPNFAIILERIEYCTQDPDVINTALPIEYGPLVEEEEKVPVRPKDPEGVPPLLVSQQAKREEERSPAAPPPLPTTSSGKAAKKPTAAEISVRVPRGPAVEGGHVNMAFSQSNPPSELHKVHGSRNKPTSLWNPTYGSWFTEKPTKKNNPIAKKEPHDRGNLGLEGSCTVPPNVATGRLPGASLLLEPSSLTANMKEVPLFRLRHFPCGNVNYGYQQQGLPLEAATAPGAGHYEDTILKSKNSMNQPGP
Sequence of ALK (Q9UM73 19-1620): as the sequence (Q9UM73 19-1620 G1202R) above, with R1184G counted along it

SMILES	GI50 (Ba/F3(EML4-ALK) cells) [nM]	IC50 (ALK) [nM]	GI50 [1] [nM]	IC50 (EGFR^L858R/T790M/C797S) [nM]	IC50 (ALK^G1202R) [nM]	GI50 [2] [nM]
COc1cc(N2CCC(N3CCN(CC(=O)N4CCC(CCOc5cccc6c5C(=O)N(C5CCC(=O)NC5=O)C6=O)CC4)CC3)CC2)ccc1Nc1ncc(Cl)c(Nc2ccccc2P(C)(C)=O)n1 (centres unmarked) [Compound C4, 4-(2-(1-(2-(4-(1-(4-((5-chloro-4-((2-(dimethylphosphoryl)phenyl)amino)pyrimidin-2-yl)amino)-3-methoxyphenyl)piperidin-4-yl)piperazin-1-yl)acetyl)piperidin-4-yl)ethoxy)-2-(2,6-dioxopiperidin-3-yl)isoindoline-1,3-dione]	–	1 to 100	101 to 200	101 to 200	101 to 200	–
COc1cc(N2CCC(N3CCN(C(=O)C(C)(C)COC(=O)COc4cccc5c4C(=O)N(C4CCC(=O)NC4=O)C5=O)CC3)CC2)ccc1Nc1ncc(Cl)c(Nc2ccccc2P(C)(C)=O)n1 (centres unmarked) [Compound C6, 2-((2-(2,6-dioxopiperidin-3-yl)-1,3-dioxoisoindolin-4-yl)oxy)acetic acid 3-(4-(1-(4-((5-Chloro-4-((2-(dimethylphosphoryl)phenyl)amino)pyrimidin-2-yl)amino)-3-methoxyphenyl)piperidin-4-yl)piperazin-1-yl)-2,2-dimethyl-3-oxopropyl ester]	–	1 to 100	201 to 300	101 to 200	1 to 100	–
COc1cc(N2CCC(N3CCN(C(=O)CC4(CSCC(=O)Nc5cccc6c5C(=O)N(C5CCC(=O)NC5=O)C6=O)CC4)CC3)CC2)ccc1Nc1ncc(Cl)c(Nc2ccccc2P(C)(C)=O)n1 (centres unmarked) [Compound C103, 2-(((1-(2-(4-(1-(4-((5-chloro-4-((2-(dimethylphosphoryl)phenyl)amino)pyrimidin-2-yl)amino)-3-methoxyphenyl)piperidin-4-yl)piperazin-1-yl)-2-oxoethyl)cyclopropyl)methyl)thio)—N-(2-(2,6-dioxopiperidin-3-yl)-1,3-dioxoisoindolin-4-yl)acetamide]	–	1 to 100	–	201 to 300	> 300	–
COc1cc(N2CCC(N3CCN(CCCCCCCOc4cccc5c4C(=O)N(C4CCC(=O)NC4=O)C5=O)CC3)CC2)c(C)cc1Nc1ncc(Br)c(Nc2ccc3nccnc3c2P(C)(C)=O)n1 (centres unmarked) [Compound C158, 4-((7-(4-(1-(4-((5-bromo-4-((5-(dimethylphosphoryl)quinoxalin-6-yl)amino)pyrimidin-2-yl)amino)-5-methoxy-2-methylphenyl)piperidin-4-yl)piperazin-1-yl)heptyl)oxy)-2-(2,6-dioxopiperidin-3-yl)isoindoline-1,3-dione]	201 to 300	–	101 to 200	–	–	1 to 100
COc1cc(N2CCC(N3CCN(CCCCCCCOc4cccc5c4CN(C4CCC(=O)NC4=O)C5=O)CC3)CC2)c(C)cc1Nc1ncc(Br)c(Nc2ccc3nccnc3c2P(C)(C)=O)n1 (centres unmarked) [Compound C214, 3-(4-((7-(4-(1-(4-((5-bromo-4-((5-(dimethylphosphoryl)quinoxalin-6-yl)amino)pyrimidin-2-yl)amino)-5-methoxy-2-methylphenyl)piperidin-4-yl)piperazin-1-yl)heptyl)oxy)-1-oxoisoindolin-2-yl)piperidine-2,6-dione]	1 to 100	–	1 to 100	–	–	1 to 100

Second part, the compound after the results:

GI50 (Ba/F3(EML4-ALK) cells) [nM]	IC50 (ALK) [nM]	GI50 [1] [nM]	IC50 (EGFR^L858R/T790M/C797S) [nM]	IC50 (ALK^G1202R) [nM]	GI50 [2] [nM]	SMILES
1 to 100	1 to 100	1 to 100	1 to 100	–	–	COc1cc(N2CCC(N3CCN(CCCCCC#Cc4cccc5c4CN(C4CCC(=O)NC4=O)C5=O)CC3)CC2)ccc1Nc1ncc(Cl)c(Nc2ccccc2P(C)(C)=O)n1 (centres unmarked) [Compound C1, 3-(4-(7-(4-(1-(4-((5-chloro-4-((2-(dimethylphosphoryl)phenyl)amino)pyrimidin-2-yl)amino)-3-methoxyphenyl)piperidin-4-yl)piperazin-1-yl)hept-1-yn-1-yl)-1-oxoisoindolin-2-yl)piperidine-2,6-dione]
–	1 to 100	> 300	1 to 100	1 to 100	–	COc1cc(N2CCC(N3CCN(CC(=O)N4CC(Oc5cccc6c5C(=O)N(C5CCC(=O)NC5=O)C6=O)C4)CC3)CC2)ccc1Nc1ncc(Cl)c(Nc2ccccc2P(C)(C)=O)n1 (centres unmarked) [Compound C93, 4-((1-(2-(4-(1-(4-((5-chloro-4-((2-(dimethylphosphoryl)phenyl)amino)pyrimidin-2-yl)amino)-3-methoxyphenyl)piperidin-4-yl)piperazin-1-yl)acetyl)azetidin-3-yl)oxy)-2-(2,6-dioxopiperidin-3-yl)isoindoline-1,3-dione]
–	1 to 100	> 300	1 to 100	1 to 100	–	COc1cc(N2CCC(N3CCN(CC(=O)N4CC(COc5cccc6c5C(=O)N(C5CCC(=O)NC5=O)C6=O)C4)CC3)CC2)ccc1Nc1ncc(Cl)c(Nc2ccccc2P(C)(C)=O)n1 (centres unmarked) [Compound C94, 4-((1-(2-(4-(1-(4-((5-chloro-4-((2-(dimethylphosphoryl)phenyl)amino)pyrimidin-2-yl)amino)-3-methoxyphenyl)piperidin-4-yl)piperazin-1-yl)acetyl)azetidin-3-yl)methoxy)-2-(2,6-dioxopiperidin-3-yl)isoindoline-1,3-dione]
1 to 100	–	–	1 to 100	–	1 to 100	[2H]C([2H])(CCCCCCOc1cccc2c1C(=O)N(C1CCC(=O)NC1=O)C2=O)N1CCN(C2CCN(c3ccc(Nc4ncc(Cl)c(Nc5ccccc5P(C)(C)=O)n4)c(OC)c3)CC2)CC1 (centres unmarked) [Compound C164, 4-((7-(4-(1-(4-((5-chloro-4-((2-(dimethylphosphoryl)phenyl)amino)pyrimidin-2-yl)amino)-3-methoxyphenyl)piperidin-4-yl)piperazin-1-yl)heptyl-7,7-dideuterium)oxy)-2-(2,6-dioxopiperidin-3-yl)isoindoline-1,3-dione]
1 to 100	–	1 to 100	–	–	1 to 100	COc1cc(N2CCC(N3CCN(CCCCCCCC#Cc4cccc5c4CN(C4CCC(=O)NC4=O)C5=O)CC3)CC2)c(C)cc1Nc1ncc(Br)c(Nc2ccc3nccnc3c2P(C)(C)=O)n1 (centres unmarked) [Compound C183, 3-(4-(9-(4-(1-(4-((5-bromo-4-((5-(dimethylphosphoryl)quinoxalin-6-yl)amino)pyrimidin-2-yl)amino)-5-methoxy-2-methylphenyl)piperidin-4-yl)piperazin-1-yl)non-1-yn-1-yl)-1-oxoisoindolin-2-yl)piperidine-2,6-dione]
